According to ChEMBL document CHEMBL1201862, “PubChem BioAssay data set” (2004):
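All cell lines were grown in 96-well plates and treated with compound for 48 hours. Here, GI50 denotes the concentration required for 50% inhibition of growth.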 Calls of active or inactive are those of the source. Cut-off read from the data, not from the text of the source: active = GI50 up to about 1.1 µM and inactive = higher.

Assays:
Experiment in all cases: NCI tumour cell line growth inhibition, 48 h
NCI-H460 = tested on: NCI-H460
BT-549 = tested on: BT-549
OVCAR-3 = tested on: OVCAR-3
RXF 393 = tested on: RXF 393
DU-145 = tested on: DU-145
HCC 2998 = tested on: HCC 2998
NCI-H23 = tested on: NCI-H23
A549 = tested on: A549
MDA-MB-231 = tested on: MDA-MB-231
M14 = tested on: M14
CCRF-CEM = tested on: CCRF-CEM
IGROV-1 = tested on: IGROV-1
NCI/ADR-RES = tested on: NCI/ADR-RES
OVCAR-5 = tested on: OVCAR-5
A498 = tested on: A498
SNB-75 = tested on: SNB-75
SK-MEL-5 = tested on: SK-MEL-5
Hs-578T = tested on: Hs-578T
RPMI-8226 = tested on: RPMI-8226

Row | SMILES | GI50 (NCI-H460) | GI50 (BT-549) | GI50 (OVCAR-3) | GI50 (RXF 393) | GI50 (DU-145) | GI50 (HCC 2998) | GI50 (NCI-H23) | GI50 (A549) | GI50 (MDA-MB-231) | GI50 (M14) | GI50 (CCRF-CEM) | GI50 (IGROV-1) | GI50 (NCI/ADR-RES) | GI50 (OVCAR-5) | GI50 (A498) | GI50 (SNB-75) | GI50 (SK-MEL-5) | GI50 (Hs-578T) | GI50 (RPMI-8226)
1 | CC(C)(C)C1CCC2c3c([nH]c4ccccc34)C3C(=O)N(c4cccc([N+](=O)[O-])c4)C(=O)C3C2C1 (stereo unspecified) | 13.6 µM (inactive) | 17 µM (inactive) | 35.6 µM (inactive) | 54 µM (inactive) | 25.9 µM (inactive) | 27.7 µM (inactive) | 15.5 µM (inactive) | 39.5 µM (inactive) | 30.5 µM (inactive) | 37.6 µM (inactive) | > 100 µM (inactive) | 19.8 µM (inactive) | 27.1 µM (inactive) | 52.2 µM (inactive) | 41.2 µM (inactive) | 59.6 µM (inactive) |  |  | 
2 | OC(c1cc2ccccc2o1)c1cc2ccccc2s1 (stereo unspecified) | > 10 µM (inactive) |  | > 10 µM (inactive) | > 10 µM (inactive) | > 10 µM (inactive) | > 10 µM (inactive) | > 10 µM (inactive) | > 10 µM (inactive) | > 10 µM (inactive) | > 10 µM (inactive) | > 10 µM (inactive) | > 10 µM (inactive) | > 10 µM (inactive) | > 10 µM (inactive) |  | > 10 µM (inactive) | > 10 µM (inactive) | 9.53 µM (inactive) | > 10 µM (inactive)
3 | COC1(CCO)CC=CCC1(CCO)OC (stereo unspecified) | > 100 µM (inactive) | > 100 µM (inactive) | > 100 µM (inactive) |  | > 100 µM (inactive) |  |  | > 100 µM (inactive) |  | > 100 µM (inactive) | > 100 µM (inactive) | > 100 µM (inactive) | > 100 µM (inactive) | > 100 µM (inactive) |  | > 100 µM (inactive) | > 100 µM (inactive) | > 100 µM (inactive) | > 100 µM (inactive)
4 | CC1(C#N)CC(C)(C)C(/C=C2/CC(C)(C)C(/C=C3/OC(=N)CC3(C)C)=N2)=N1 (stereo unspecified) | 15.8 µM (inactive) |  | 20 µM (inactive) | 15.2 µM (inactive) | 33.7 µM (inactive) | 32.2 µM (inactive) | 22.8 µM (inactive) | 29.5 µM (inactive) | 33.6 µM (inactive) | 28.9 µM (inactive) | 32.4 µM (inactive) | 17.6 µM (inactive) | 18.2 µM (inactive) | 80.4 µM (inactive) | 10.5 µM (inactive) | 31 µM (inactive) | 16.6 µM (inactive) | 19.2 µM (inactive) | 20 µM (inactive)
5 | CC(C)Oc1cccc(N2C(NCCc3c[nH]c4ccccc34)=Nc3ccncc3S2(=O)=O)c1 | 6.53 µM (inactive) | 61.1 µM (inactive) | 11.7 µM (inactive) | 3.46 µM (inactive) | 22.5 µM (inactive) | 24.4 µM (inactive) | 33.1 µM (inactive) | 40.9 µM (inactive) |  | 10.4 µM (inactive) | 6.15 µM (inactive) | 41.7 µM (inactive) | 29.9 µM (inactive) | > 100 µM (inactive) | 9.31 µM (inactive) | 8.05 µM (inactive) | 9.59 µM (inactive) | 3.9 µM (inactive) | 5.51 µM (inactive)
6 | O=S(=O)(c1ccc(NC(=S)N/N=C/c2ccccc2O)cc1)N1CCCCC1 |  | 37.8 µM (inactive) | < 0.0498 µM (active) | 56.8 µM (inactive) |  |  | 0.281 µM (active) | 0.255 µM (active) |  | 0.0771 µM (active) | < 0.023 µM (active) | 1.73 µM (inactive) | 0.0676 µM (active) | 0.269 µM (active) | 0.264 µM (active) | 1.36 µM (inactive) | < 0.01 µM (active) | 1.91 µM (inactive) | 0.214 µM (active)
7 | O=C1/C(=C/c2ccco2)N=C(c2ccccc2)N1c1ccc(S(=O)(=O)Nc2nccs2)cc1 | 45.9 µM (inactive) | > 100 µM (inactive) | 83.9 µM (inactive) | 69.5 µM (inactive) | > 100 µM (inactive) | > 100 µM (inactive) | > 100 µM (inactive) | 89.7 µM (inactive) | > 100 µM (inactive) | > 100 µM (inactive) | 75.7 µM (inactive) | > 100 µM (inactive) | > 100 µM (inactive) | > 100 µM (inactive) |  | > 100 µM (inactive) | 87.9 µM (inactive) |  | 41.7 µM (inactive)
8 | C/C(=C\COP(=O)(O)OP(=O)(O)O)CC/C=C(\C)CNc1ccc([N+](=O)[O-])cc1 | > 100 µM (inactive) |  | > 100 µM (inactive) | > 100 µM (inactive) | > 100 µM (inactive) |  | > 100 µM (inactive) | > 100 µM (inactive) | > 100 µM (inactive) | > 100 µM (inactive) | > 100 µM (inactive) | > 100 µM (inactive) | > 100 µM (inactive) | > 100 µM (inactive) |  | > 100 µM (inactive) | > 100 µM (inactive) | > 100 µM (inactive) | > 100 µM (inactive)
